# Tests used:
# HIF-1α = assay: RT-PCR gene-fold changes in human GBM cells; format: cell-based
# Experimental: Quantification of mRNA by real-time quantitative RT-PCR for HIF-1a, MPG and MGMT. Total RNA from all cell lines with all treatments was purified with an RNeasy Mini Kit (Qiagen), and quantified by spectrophotometry (Nanodrop). cDNA was synthesized using SuperScript IV Reverse Transcriptase Kit (Invitrogen).
# Target gene mRNA was amplified and measured by Bio-Rad CFX96™ Real Time System. Gene expression was determined using the SYBR Select Master Mix (Applied Biosystems). […] The reaction is characterized by the point during cycling when amplification of PCR products is first detected, rather than the amount of PCR product accumulated after a fixed number of cycles. The higher the starting quantity of the template, the earlier a significant increase in fluorescence is observed. The threshold cycle is defined as the fractional cycle number at which fluorescence passes a fixed threshold above the baseline. Fluorescence data were converted into cycle threshold measurements exported to Microsoft Excel. Glyceraldehyde-3-phosphatase dehydrogenase (GAPDH) mRNA expression levels were used as the quantitative internal control. For precise quantification, the mRNA expression level of each sample was normalized using the expression of the GAPDH gene.
# All primers were synthesized by Integrated DNA Technologies. The primers used were: […]
# [1] = system: LBP (lipopolysaccharide binding protein); assay: LBP ELISA in tumor tissue and blood serum of G55 glioma-bearing mice; format: in vivo, mouse
# Experimental: Lipopolysaccharide binding protein (LBP) ELISA assay. The LBP ELISA kit (Antibodies-Online.com; ABIN370808) is specific for mouse LBP levels in serum, plasma and tissue samples. This is a colorimetric assay that was read on a micro plate reader for measurement of absorbance at 450/620 nm. LBP concentrations were calculated from a standard curve and multiplied by appropriate dilution factors.
# rat F98 gliomas = assay: Microarray analysis of OKN-007-treated vs untreated rat F98 gliomas; format: in vivo
# Experimental: Mice and Treatments. Animal studies were conducted in accordance to the OMRF IACUC (Institutional Animal Care and Use Committee) policies, which follow NIH guidelines. For the F98 rat glioma cell implantation model, F98 cells (10^5 in 10-μ1 volume) were intracerebrally implanted with a stereotaxic device (2 mm lateral and 2 mm anterior to the bregma, and at a 3 mm depth) in a total of 15 Fischer 344 rats (male 200-250 gm). The animals were divided into two groups once tumors reached 10-20 mm^3 in volume (as determined by MRI): OKN-007 treated (n=8) and untreated (UT) (n=7) groups. Rats were treated until tumors reached 200-250 mm^3 in volume or for a total of 4-6 weeks. For the G55 GBM cell implantation model, two-month-old male nude mice (Hsd:Athymic Nude-Foxnlnu mice; Harlan Inc., Indianapolis, IN) were implanted intracerebrally with human G55 xenograft cells (1×10^6) per mL suspended in 4 μL in cell culture media of 1% agarose solution. Once tumors reached 10-15 mm^3 (determined via MRI), mice were either treated daily with OKN-007 in the drinking water (150 mg/kg; 0.20% w/v for a 20 g mouse), or every 3 days with TMZ (30 mg/kg). OKN-007 was dissolved in water and made fresh every 2 days. Water bottles were weighed, and the amount of OKN-007 consumed per mouse was determined. […] The average intake of OKN-007 was approximately 140-150 mg/kg/day/mouse. TMZ was dissolved in 5% DMSO and 5% solutol-15 in sterile saline and administered via gavage. Mice were treated until the tumors reached 100-150 mm^3 or for a total of 4-6 weeks. All groups were stratified to ensure that tumor sizes were similar before initiation of treatment.
# RNA isolation and preparation. For the rat F98 glioma study, all rats were euthanized after the last MRI examination. The brain of each animal was removed, and snap frozen in liquid nitrogen, before storage in a −80° C. freezer. Total RNA from all tumor tissues from all treatment groups was purified with an RNeasy Mini Kit (Qiagen), and quantified by spectrophotometry (Nanodrop). cDNA was synthesized using SuperScript IV Reverse Transcriptase Kit (Invitrogen).
# Microarray analysis. The Illumina TotalPrepTM RNA Amplification Kit was used for labeling cRNA (Ambion, Austin, Tex.), as previously described (Griffins et al., 2009). Four×four treated/untreated samples were profiled using Affymetrix RaGene-1_0-st-v1 microarrays. Exon-level-summarized measures were quantile-normalized and tested for differential expression using Significance Analysis of Microarrays (SAM, [PMID: 11309499]) at a false discovery rate (FDR) <40% and […]. Functional enrichment analysis was performed using Ingenuity Pathways Analysis (IPA) (Ingenuity® Systems, world-wide-web at ingenuity.com).
# G55 GBM cells = assay: Cell migration in laminin-coated PDMS micro-channels; format: cell-based, human; conditions: at 22 h and 46 h following treatment
# Experimental: Cell migration. For the migration study, 6-well chambers with PDMS (polydimethylsiloxane) micro-channels inside were coated with 10 μg/ml of laminin (Sigma-Aldrich) in each well. G55 cells were seeded (50×10^3) in 100 μl and supplemented with 2 ml of media in each well. The chambers were incubated in the incubator at 37° C. with 5% CO2 until scheduled time points. Some chambers were treated with OKN-007, TMZ or OKN-007 combined with TMZ (1 μL/mL media for both OKN-007 and TMZ, as well as when the two are combined), and for each treatment group one well was left untreated as a control. Images of the cells inside the microchannels were taken using an Olympus CK40 inverted microscope (Japan) under 10× and the distances of the same cells traveled were measured at 22 h, 28 h, and 46 h post seeding, cell migration speed (μm/h) was calculated. Each treatment was repeated at least 3 times and data shown as mean ±S.D.
# [2] = system: GBM cells (LN229, U138, G55, U251, T98, LN18); assay: Cell viability at 1 mM vs 2 mM OKN; format: cell-based, human
# Solubility in water = format: physicochemical; conditions: free acid
# [3] = in vivo; cited from earlier work
# [4] = tested in vivo; cited from earlier work
# [5] = microarray, F98 gliomas, OKN treatment vs UT
smiles,measurement,setting,value
"CC(C)(C)[N+]([O-])=Cc1ccc(S(=O)(=O)O)cc1S(=O)(=O)O [OKN-007, 2,4-disulfonyl phenyl tert-butyl nitrone]",RT-PCR gene-fold change HIF-1α,"HIF-1α; G55 cells (TMZ-resistant), UT 1.00",1.20 fold
same,RT-PCR gene-fold change HIF-1α,"HIF-1α; LN18 cells (TMZ-resistant), UT 1.03",1.35 fold
same,RT-PCR gene-fold change HIF-1α,"HIF-1α; LN229 cells (TMZ-sensitive), UT 1.00",1.09 fold
same,RT-PCR gene-fold change HIF-1α,"HIF-1α; T98 cells (TMZ-resistant), UT 1.00",0.58 fold
same,RT-PCR gene-fold change HIF-1α,"HIF-1α; U138 cells (TMZ-resistant), UT 1.00",2.93 fold
same,RT-PCR gene-fold change HIF-1α,"HIF-1α; U251 cells (TMZ-sensitive), UT 1.00",1.59 fold
same,LBP levels in tumor tissues compared to UT mice,[1],significantly less
same,number of down-regulated genes with TGFβ1 as master (upstream) regulator,"rat F98 gliomas; Upstream Regulator Analysis, IPA, rat F98 treated gliomas vs untreated tumors",57 genes
same,TGFβ1 downregulation,"rat F98 gliomas; microarray, F98 gliomas treated with OKN-007 vs UT",~2 fold
same,number of genes upregulated,rat F98 gliomas; [5],3 genes
same,number of genes with at least one exon significantly downregulated,rat F98 gliomas; [5],384 genes
same,decrease in gene expression for LBP,"rat F98 gliomas; microarray, rat F98 glioma model, treated vs untreated tumors",> 2 fold
same,cell migration speed compared to untreated (UT) cells,G55 GBM cells,significantly decreased
same,"reduction of cell viabilities, 1 mM OKN compared to the 2 mM concentration","[2]; LN229, U138, G55 cells",just as effective
same,"reduction of cell viabilities, 2 mM OKN compared to the 1 mM concentration","[2]; U251, T98, LN18 cells",slightly more effective
same,solubility in water,Solubility in water,greater than 1 gram/ml
same,crossing of the blood brain barrier,[3],can readily cross the BBB
same,efficacy as compared to PBN,[4],unexpected increase in efficacy
same,potency as compared to PBN,[4],increase in potency
same,toxicity as compared to PBN,[4],marked and highly significant decrease in toxicity

# Source: patent US11660280B2, “Treatment of drug resistant gliomas” (OKLAHOMA MEDICAL RESEARCH FOUNDATION, priority 2017, dated 2023)
